These results are taken from PMC9132125 (Journal of natural products, 2016).

Series [1] concerns KCL-22 and T315I KCL-22 CML cell lines. The experiment in a line: Biological screening at 1 μM on the two CML cell lines. In kind it is cell-based, human.
The subject of series [2] is T315I mutant KCL-22 CML cells. The experiment in a line: MTS cell viability assay, imatinib-resistant T315I mutant KCL-22 CML cells. As to conditions: 48 h exposure. The format is cell-based, human.
Another series relates to GSK-3β. As to conditions: read-out: GSK-3β IC50; previously published; cited from earlier work.
The target in a further series is c-Src (Homo sapiens, UniProt P12931). The experiment in a line: Kinase assay in vitro. In kind it is biochemical. To be noted: recombinant protein, 33P-ATP.
c-Src, sequence (P12931 whole entry): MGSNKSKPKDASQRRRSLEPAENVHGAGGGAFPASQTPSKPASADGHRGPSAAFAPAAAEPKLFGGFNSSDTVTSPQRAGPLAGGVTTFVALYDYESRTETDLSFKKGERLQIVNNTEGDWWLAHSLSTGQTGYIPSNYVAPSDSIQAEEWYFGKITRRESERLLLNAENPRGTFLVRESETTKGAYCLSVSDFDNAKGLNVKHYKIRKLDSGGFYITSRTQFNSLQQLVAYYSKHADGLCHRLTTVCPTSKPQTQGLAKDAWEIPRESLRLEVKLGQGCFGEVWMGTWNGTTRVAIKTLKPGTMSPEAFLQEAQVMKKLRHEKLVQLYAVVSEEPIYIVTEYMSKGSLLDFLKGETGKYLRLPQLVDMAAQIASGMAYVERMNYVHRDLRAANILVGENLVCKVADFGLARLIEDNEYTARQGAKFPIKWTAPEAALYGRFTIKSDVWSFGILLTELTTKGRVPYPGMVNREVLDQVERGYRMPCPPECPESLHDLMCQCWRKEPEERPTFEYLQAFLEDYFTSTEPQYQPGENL

For the molecule `O=C1Nc2ccccc2/C1=C1/Nc2ccccc2C1=O` [compound 1, Indirubin, reference compound], the “cytotoxic activity in the screening (in words)” value (“cytotoxic activity” below) in series [1] is “loss of activity”.

`O=C1Nc2ccccc2/C1=C1/Nc2ccccc2/C1=N\O` [compound 2]: the “cytotoxic activity” value in series [1] is “loss of activity”.

Regarding `CN(CCO/N=C1/C(=C2/C(=O)Nc3cc(Br)ccc32)Nc2ccccc21)CC(O)CO` (stereo not drawn) [compound 17], in series [2], the “T315I mutant KCL-22 IC50 range (in words)” value was “submicromolar range”. For the same molecule, in the series on GSK-3β, the IC50 was 67 nM. For the same molecule, on c-Src, the “c-Src IC50 range (in words)” value is reported as “picomolar”.

Turning to `CN(CCO/N=C1/C(=C2/C(=O)Nc3cc(Br)ccc32)Nc2ccccc21)CC(O)CO.Cl` (stereo not drawn) [compound 18], the “T315I mutant KCL-22 IC50 range (in words)” value in series [2] is listed as “submicromolar range”. The concentration for half-maximal inhibition (IC50) with GSK-3β was 23 nM. Moreover, on c-Src, the “c-Src IC50 range (in words)” value is given as “picomolar”.

`O=C1Nc2cc(Br)ccc2/C1=C1/Nc2ccccc2/C1=N\OCCN1CCCC1` [compound 19]: in series [2], the “T315I mutant KCL-22 IC50 range (in words)” value is recorded as “submicromolar range”. In addition, the IC50 in the series on GSK-3β is 26 nM. The “c-Src IC50 range (in words)” value at c-Src is reported as “nanomolar”.

`Cl.O=C1Nc2cc(Br)ccc2/C1=C1/Nc2ccccc2/C1=N\OCCN1CCCC1` [compound 20]: in series [2], the “T315I mutant KCL-22 IC50 range (in words)” value is “submicromolar range”. For the same molecule, the IC50 in the series on GSK-3β was 54 nM. For the same molecule, the “c-Src IC50 range (in words)” value at c-Src was “nanomolar”.

On to `Cl.Cl.O=C1Nc2cc(Br)ccc2/C1=C1/Nc2ccccc2/C1=N\OCCN1CCNCC1` [compound 22], for which, in series [2], the “T315I mutant KCL-22 IC50 range (in words)” value is recorded as “submicromolar range”. Also, at c-Src, the “c-Src IC50 range (in words)” value was “picomolar”.

On to `COCCN1CCN(CCO/N=C2/C(=C3/C(=O)Nc4cc(Br)ccc43)Nc3ccccc32)CC1` [compound 27], for which the “T315I mutant KCL-22 IC50 range (in words)” value in series [2] was “submicromolar range”. The half-inhibitory concentration (IC50) in the series with GSK-3β was 110 nM. On c-Src, the “c-Src IC50 range (in words)” value is given as “nanomolar”.

`COCCN1CCN(CCO/N=C2/C(=C3/C(=O)Nc4cc(Br)ccc43)Nc3ccccc32)CC1.Cl.Cl` [compound 28]: in series [2], the “T315I mutant KCL-22 IC50 range (in words)” value is “submicromolar range”. Besides, the IC50 in the series with GSK-3β is 200 nM. Moreover, on c-Src, the “c-Src IC50 range (in words)” value is recorded as “nanomolar”.

Turning to `O=C1Nc2cc(Br)ccc2/C1=C1/Nc2ccccc2/C1=N\OCCN1CCN(CCOCCO)CC1` [compound 29], the concentration for half-maximal inhibition (IC50) in the series with GSK-3β is 14 nM. Further, at c-Src, the “c-Src IC50 range (in words)” value is on record as “picomolar”.

On to `Cl.Cl.O=C1Nc2cc(Br)ccc2/C1=C1/Nc2ccccc2/C1=N\OCCN1CCN(CCOCCO)CC1` [compound 30], for which the “T315I mutant KCL-22 IC50 range (in words)” value in series [2] was “submicromolar range”.

With `O=C1Nc2ccccc2/C1=C1/Nc2cc(Br)ccc2C1=O` [compound 57], the “cytotoxic activity” value in series [1] is “inactive”.

Regarding `O=C1Nc2ccccc2/C1=C1/Nc2cc(Br)ccc2/C1=N\O` [compound 58], the “cytotoxic activity” value in series [1] was “inactive”.
